US6379959B1, “Metalocarboxypeptidase inhibitors and derived molecules used as antitumor agents” (Universitat Autonoma de Barcelona, priority 1996, dated 2002)
Read-outs that look alike come from different tables or passages of the source. Positions of bridges follow the written chain, without caps; N, C: chain ends. No end group written: not given here.

Key:
[1] = tested on: tumors of human pancreatic adenocarcinoma cell line Capan-1; experiment: Tests with athymic mice, subcutaneous Capan-1 tumors; format: in vivo, nude mice; parameters: key to SGD class: SGD < 1 expressed as −; >expressed +; <3 expressed as +++; settings: for Duplication time (days) of the tumor: daily 100 μL into the tumor, 32 days (control 4.32)
Method: With the aim of evaluating the sensitivity to PCI of induced human tumors, studies were carried out with nude mice. Human pancreatic adenocarcinoma cells Capan-1 were inoculated in these mice subcutaneously and once the tumor reached a minimum size of 3×3 mm2, a daily treatment begun, also subcutaneous, with different doses of PCI for 32 days. The following materials were employed:
In order to determine whether the PCI had any effect on tumoral growth, the growth of subcutaneous tumors induced in nude mice, whether treated with PCI or not, was followed over a period of time. The detailed protocol was the following:
1. 10^7 Capan-1 cells were dissolved in 100 μL of DMEM and injected subcutaneously to the mice. 19 mice were inoculated and divided into 4 groups.
Control group: consisting of 5 mice. They were treated with PBS.
Group 1: also consisting of 5 mice. They were treated with 0.11 mg/mL of PCI dissolved in PBS.
Group 2: consisting of 5 mice to which a treatment with a dose of 0.6 mg/mL of PCI was applied.
Group 3: consisting of 4 mice for which, in this case, the dose of PCI was 1.2 mg/mL of PCI.
2. 12 days after the inoculation of the cells, the daily treatment with PBS or PCI by direct injection in the tumor of 100 μL of such solutions was started. At this moment, the tumors were palpable and measured, at least, 2 mm of diameter.
3. During the treatment, the size of the tumor was determined every two days using a Vernier calibrator which made it possible to measure the size of the tumor in all its dimensions. The volume of the tumor was determined by means of the following formula: [formula]
As the volumes of the tumors became known, the relative growth of such tumors was calculated every 7 days using the following formula: [formula]
Once the treatment had finished, the duplication time of the tumor (td) was calculated for each treatment with the following formula: [formula]
where d corresponds to the days of treatment, Vt to the volume of the tumor at the end of the treatment and V0 to the volume at the beginning of the treatment.

[2] = tested on: human pancreatic adenocarcinoma cell line Capan-1; format: cell-based; settings: SFM, 72 h
Method: Other kinds of tests were also carried out, the cells growing in serum-free medium as well; these were studies at short periods of time, 72 h, and of competitiveness with a growth factor plus wtPCI, PCIdelYVG or tail. […] The protocol employed was as follows:
1. In a culture plate of 96 wells, in 42 of which 5,000 cells per well were seed. The cells were placed in full medium (DMEM+10%FBS).
2. After 72 h, once the adhesion of the cells to the surface of the well had taken place, as well as their division, the medium was removed from the wells and to eliminate the remainder of the serum, 200 μL of PBS were added to each well.
3. The PBS was removed and 200 μL of DMEM-FBS were added.
4. After 24 h, the medium was removed and the following treatments were applied:
In 6 wells (control): 200 μL of serum-free medium (SFM) were added.
200 μL of SFM plus the indicated concentration of one of the growth factors and wtPCI were added in 6 wells at a final concentration of 50 μg/mL.
In 6 wells, 200 μL of SFM plus the indicated concentration of one of the growth factors and PCIdelYVG were added at a final concentration of 46 μg/mL. […]
4. Cells were kept in an incubator at 37° C., 87% of relative humidity and 10% of CO2.
5. After 72 h, the cellular growth per well was evaluated using the method detailed in the protocol of Section 4.B.2.a.

trypsin = experiment: Gene expression analysis by Northern transfer, trypsin probe; format: cell-based, human; settings: for beta counts, Trypsin probe: 12 days, Capan-1 (control 511)
Method: To verify whether the PCI plays any role in signal transduction, studies of gene expression were carried out by Northern transfer. The probes were: β2-microglobulin, p53 and trypsin. The β2-microglobulin is a constitutive gene that is used as a sample loading control in the gel. p53 is a transcription factor which, among other functions, controls the state of the genomic DNA and the cell cycle (Bates, S. & Vousden, K. H. (1996) Curr. Opin. Genet. Develop., 6: 12-19). If the DNA is damaged, p53 induces its repair and, if it is excessively damaged, it provokes programmed cellular death (apoptosis). Trypsin is a marker of pancreatic cells of the acinar type. The trypsin is not expressed by all the tumoral cells and it is believed that it is expressed by the cells with metastatic power and/or invasive power (Fernández, E. et al., (1994) Cancer, 73: 2285-2295). The probes employed are described as follows:
In the first place, 3×10^6 cells of the human pancreatic adenocarcinoma cell line Capan-1 were placed in each one of the 12 flasks of 150 cm^2. […] They were maintained in culture for 12 days period, changing their medium every 4 days, adding fresh PCI. Once the treatment was completed, the cells were trypsinized and the sediment of the cells was kept at −80° C. Afterwards, the extraction of the RNA was carried out.
The quantifying of the hybridized filters with the respective probes was done using a Betascope 601 blot Analyzer counter (Betagen, USA). The counting time was 45 min for the hybridized filter with the probe p53 and β2-microglobuline and 2 h for the trypsin probe.
Assuming that the counts of the β2-Microglobuline are an indication of the total amount of poly(A^+) RNA, the data may be standardized as a percentage of counts of the band compared to the β2-microglobuline counts of the same cells, giving a value which depends on the abundance of the specific mRNA in relation to the total of mRNA.

[3] = Dose 0.55 (mg(kg/day), s.c., days 0-32)
[4] = Dose 3 (mg(kg/day), s.c., days 0-32)
[5] = Dose 6 (mg(kg/day), s.c., days 0-32)

Substance: PCI: potato carboxypeptidase inhibitor, isoform IIa, obtained by recombinant DNA techniques in E. coli (SEQ ID NO.2) (EQHADPICNKPCKTHDDCSGAWFCQACWNSARTCGPYVG; disulfide 12-27, 18-34, 8-24)
- Duplication time (days) of the tumor ([1]; 0.11 mg/mL PCI): 9.06 days
- Duplication time (days) of the tumor ([1]; 0.6 mg/mL PCI): 19.49 days
- Duplication time (days) of the tumor ([1]; 1.2 mg/mL PCI): 5.78 days
- Optimal T/C % [1, 3]: 39.79%
- SGD (Td treated- Td control/Td control) [1, 3]: 1.09
- SGD class [1, 3]: +
- Optimal T/C % [1, 4]: 21.36%
- SGD (Td treated- Td control/Td control) [1, 4]: 3.51
- SGD class [1, 4]: +++ (<3 expressed as +++)
- Optimal T/C % [1, 5]: 69.4%
- SGD (Td treated- Td control/Td control) [1, 5]: 0.34
- SGD class [1, 5]: − (SGD < 1 expressed as −)
- days of treatment until tumors start bleeding in the process of injection ([1]; animals treated with PCI (control three days)): 8 days
- activity in the reduction of the growth of the tumors ([1]; dose of 0.11 mg/mL): moderate activity (T/C < 50% moderate activity)
- duplication time of the tumor relative to the control tumors ([1]; dose of 0.11 mg/mL of PCI): twice as high
- activity in the reduction of the growth of the tumors ([1]; dose of PCI of 0.6 mg/mL): significant activity (T/C < 25%, significant activity)
- duplication time of the tumor relative to the control group ([1]; doses of 0.6 mg/mL): 4.5 times
- Growth (Percentage in relation to the average of the controls) ([2]; EGF 10 ng/mL + 50 mg/mL wtPCI): 30.63%
- Growth (Percentage in relation to the average of the controls) ([2]; Insulin 5 mg/mL + 50 mg/mL wtPCI): 44.10%
- lower transcription of trypsin, inverse quotient (control/treatment) (trypsin; 1 mg/mL PCI): 2.9 times
- Trypsin/b2 (counts of one band in relation to those of β2-microglobuline) (trypsin; 1 mg/mL PCI (control 0.5351)): 0.1814
- beta counts, Trypsin probe (trypsin; 1 mg/mL PCI): 396
- lower transcription of trypsin, inverse quotient (control/treatment) (trypsin; 10 mg/mL PCI): 7.8 times
- Trypsin/b2 (counts of one band in relation to those of β2-microglobuline) (trypsin; 10 mg/mL PCI (control 0.5351)): 0.0687
- beta counts, Trypsin probe (trypsin; 10 mg/mL PCI): 432
